From US4442044A, “Process for preparing monoesters and diesters of N-alkyl substituted amino methyl phosphonic acid” (priority 1983, dated 1984)

How the values were obtained:
Assay type in all cases: in vivo
Barnyardgrass [1] = assay: post-emergent herbicidal activity, greenhouse; conditions: 4 WAT
How it was run: (§1)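 Seeds or propagules sown in compacted top soil, grown 2–3 weeks in greenhouse, then sprayed with compound solution/suspension containing ~0.4% emulsifier at tabulated rates. Injury scored visually versus untreated controls at ~2 and 4 weeks after treatment, expressed as a herbicidal activity index.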

Cocklebur [2] = assay: post-emergent herbicidal activity, greenhouse; conditions: Table II, 4 WAT
How it was run: as §1

Crabgrass = assay: post-emergent herbicidal activity, greenhouse; conditions: Table II, 4 WAT
How it was run: as §1

Downy Brome [3] = assay: post-emergent herbicidal activity, greenhouse; conditions: Table II, 4 WAT
How it was run: as §1

Hemp Sesbania = assay: post-emergent herbicidal activity, greenhouse; conditions: Table II, 4 WAT
How it was run: as §1

Lambsquarters [4] = assay: post-emergent herbicidal activity, greenhouse; conditions: 4 WAT
How it was run: as §1

Morningglory [5] = assay: post-emergent herbicidal activity, greenhouse; conditions: 4 WAT
How it was run: as §1

Panicum Spp = assay: post-emergent herbicidal activity, greenhouse; conditions: Table II, 4 WAT
How it was run: as §1

Quackgrass [6] = assay: post-emergent herbicidal activity, greenhouse; conditions: Table I, 4 WAT, 11.2 kg/h
How it was run: as §1

Rice = assay: post-emergent herbicidal activity, greenhouse; conditions: Table II, 4 WAT
How it was run: as §1

Smartweed [7] = assay: post-emergent herbicidal activity, greenhouse; conditions: 4 WAT
How it was run: as §1

Sorghum = assay: post-emergent herbicidal activity, greenhouse; conditions: Table II, 4 WAT
How it was run: as §1

Soybean = assay: post-emergent herbicidal activity, greenhouse; conditions: Table II, 4 WAT
How it was run: as §1

Sugar Beet = assay: post-emergent herbicidal activity, greenhouse; conditions: Table II, 4 WAT
How it was run: as §1

Velvetleaf [8] = assay: post-emergent herbicidal activity, greenhouse; conditions: 4 WAT
How it was run: as §1

Wheat = assay: post-emergent herbicidal activity, greenhouse; conditions: Table II, 4 WAT
How it was run: as §1

Wild Buckwheat = assay: post-emergent herbicidal activity, greenhouse; conditions: Table II, 4 WAT
How it was run: as §1

Yellow Nutsedge [9] = assay: post-emergent herbicidal activity, greenhouse; conditions: Table I, 4 WAT, 5.6 kg/h
How it was run: as §1

Barnyardgrass [10] = assay: pre-emergent herbicidal activity, soil incorporation; conditions: Table III, 2 WAT, 11.2 kg/h
From the text: (§2) A good grade of top soil is placed in aluminum pans and compacted to a depth of 0.95 to 1.27 cm. from the top of each pan. A predetermined number of seeds or vegetative propagules of each of several plant species are placed on top of the soil in each pan and then pressed down. Herbicidal compositions prepared as in the previous example are applied by admixture with or incorporation in the top layer of soil.
(§3) In this method, the soil required to cover the seeds and propagules is weighed and admixed with a herbicidal composition containing a known amount of the active ingredient (compound of this invention). The pans are then filled with the admixture and leveled. Watering is carried out by permitting the soil in the pans to absorb moisture through apertures in the pan bottoms. The seed and propagule containing pans are placed on a wet sand bench and maintained for approximately two weeks under ordinary conditions of sunlight and watering. At the end of this period, the number of emerged plants of each species is noted and compared to an untreated control.
(§4) The pre-emergent herbicidal activity index used below is based upon average percent control of each species as follows: […]

Canada Thistle = assay: as above; conditions: Table III, 2 WAT, 11.2 kg/h
From the text: as §2, §3, §4

Cocklebur [11] = assay: as above; conditions: Table III, 2 WAT, 11.2 kg/h
From the text: as §2, §3, §4

Downy Brome [12] = assay: as above; conditions: Table III, 2 WAT, 11.2 kg/h
From the text: as §2, §3, §4

Johnsongrass = assay: as above; conditions: Table III, 2 WAT, 11.2 kg/h
From the text: as §2, §3, §4

Lambsquarters [13] = assay: as above; conditions: Table III, 2 WAT, 11.2 kg/h
From the text: as §2, §3, §4

Morningglory [14] = assay: as above; conditions: Table III, 2 WAT, 11.2 kg/h
From the text: as §2, §3, §4

Quackgrass [15] = assay: as above; conditions: Table III, 2 WAT, 11.2 kg/h
From the text: as §2, §3, §4

Smartweed [16] = assay: as above; conditions: Table III, 2 WAT, 11.2 kg/h
From the text: as §2, §3, §4

Velvetleaf [17] = assay: as above; conditions: Table III, 2 WAT, 11.2 kg/h
From the text: as §2, §3, §4

Yellow Nutsedge [18] = assay: as above; conditions: Table III, 2 WAT, 11.2 kg/h
From the text: as §2, §3, §4

CCOC(=O)CNCP(=O)(O)OC(C)C#N (stereo not drawn) [Example 5, glycine, N-[[(1-cyanoethoxy)hydroxy-phosphinyl]methyl]ethyl ester]
post-emergent herbicidal activity index (Barnyardgrass [1]; Table I, 5.6 kg/h): 4 (100% control) | post-emergent herbicidal activity index (Barnyardgrass [1]; Table I, 11.2 kg/h): 4 (100% control) | post-emergent herbicidal activity index (Barnyardgrass [1]; Table II, 0.28 kg/h): 3 (75-99% control) | post-emergent herbicidal activity index (Barnyardgrass [1]; Table II, 1.12 kg/h): 3 (75-99% control) | post-emergent herbicidal activity index (Barnyardgrass [1]; Table II, 5.6 kg/h): 4 (100% control) | post-emergent herbicidal activity index (Cocklebur [2]; 0.28 kg/h): 2 (50-74% control) | post-emergent herbicidal activity index (Cocklebur [2]; 1.12 kg/h): 2 (50-74% control) | post-emergent herbicidal activity index (Cocklebur [2]; 5.6 kg/h): 4 (100% control) | post-emergent herbicidal activity index (Crabgrass; 0.28 kg/h): 3 (75-99% control) | post-emergent herbicidal activity index (Crabgrass; 1.12 kg/h): 4 (100% control) | post-emergent herbicidal activity index (Crabgrass; 5.6 kg/h): 4 (100% control) | post-emergent herbicidal activity index (Downy Brome [3]; 0.28 kg/h): 1 (25-49% control) | post-emergent herbicidal activity index (Downy Brome [3]; 1.12 kg/h): 2 (50-74% control) | post-emergent herbicidal activity index (Downy Brome [3]; 5.6 kg/h): 3 (75-99% control) | post-emergent herbicidal activity index (Hemp Sesbania; 0.28 kg/h): 1 (25-49% control) | post-emergent herbicidal activity index (Hemp Sesbania; 1.12 kg/h): 2 (50-74% control) | post-emergent herbicidal activity index (Hemp Sesbania; 5.6 kg/h): 3 (75-99% control) | post-emergent herbicidal activity index (Lambsquarters [4]; Table I, 11.2 kg/h): 4 (100% control) | post-emergent herbicidal activity index (Lambsquarters [4]; Table II, 0.28 kg/h): 2 (50-74% control) | post-emergent herbicidal activity index (Lambsquarters [4]; Table II, 1.12 kg/h): 4 (100% control) | post-emergent herbicidal activity index (Lambsquarters [4]; Table II, 5.6 kg/h): 4 (100% control) | post-emergent herbicidal activity index (Morningglory [5]; Table I, 5.6 kg/h): 3 (75-99% control) | post-emergent herbicidal activity index (Morningglory [5]; Table I, 11.2 kg/h): 4 (100% control) | post-emergent herbicidal activity index (Morningglory [5]; Table II, 0.28 kg/h): 2 (50-74% control) | post-emergent herbicidal activity index (Morningglory [5]; Table II, 1.12 kg/h): 2 (50-74% control) | post-emergent herbicidal activity index (Morningglory [5]; Table II, 5.6 kg/h): 4 (100% control) | post-emergent herbicidal activity index (Panicum Spp; 0.28 kg/h): 3 (75-99% control) | post-emergent herbicidal activity index (Panicum Spp; 1.12 kg/h): 4 (100% control) | post-emergent herbicidal activity index (Panicum Spp; 5.6 kg/h): 4 (100% control) | post-emergent herbicidal activity index (Quackgrass [6]): 4 (100% control) | post-emergent herbicidal activity index (Rice; 0.28 kg/h): 0 (0-24% control) | post-emergent herbicidal activity index (Rice; 1.12 kg/h): 2 (50-74% control) | post-emergent herbicidal activity index (Rice; 5.6 kg/h): 4 (100% control) | post-emergent herbicidal activity index (Smartweed [7]; Table I, 5.6 kg/h): 4 (100% control) | post-emergent herbicidal activity index (Smartweed [7]; Table I, 11.2 kg/h): 4 (100% control) | post-emergent herbicidal activity index (Smartweed [7]; Table II, 0.28 kg/h): 2 (50-74% control) | post-emergent herbicidal activity index (Smartweed [7]; Table II, 1.12 kg/h): 4 (100% control) | post-emergent herbicidal activity index (Smartweed [7]; Table II, 5.6 kg/h): 4 (100% control) | post-emergent herbicidal activity index (Sorghum; 0.28 kg/h): 3 (75-99% control) | post-emergent herbicidal activity index (Sorghum; 1.12 kg/h): 3 (75-99% control) | post-emergent herbicidal activity index (Sorghum; 5.6 kg/h): 4 (100% control) | post-emergent herbicidal activity index (Soybean; 0.28 kg/h): 1 (25-49% control) | post-emergent herbicidal activity index (Soybean; 1.12 kg/h): 2 (50-74% control) | post-emergent herbicidal activity index (Soybean; 5.6 kg/h): 4 (100% control) | post-emergent herbicidal activity index (Sugar Beet; 0.28 kg/h): 1 (25-49% control) | post-emergent herbicidal activity index (Sugar Beet; 1.12 kg/h): 2 (50-74% control) | post-emergent herbicidal activity index (Sugar Beet; 5.6 kg/h): 4 (100% control) | post-emergent herbicidal activity index (Velvetleaf [8]; Table I, 11.2 kg/h): 4 (100% control) | post-emergent herbicidal activity index (Velvetleaf [8]; Table II, 0.28 kg/h): 1 (25-49% control) | post-emergent herbicidal activity index (Velvetleaf [8]; Table II, 1.12 kg/h): 2 (50-74% control) | post-emergent herbicidal activity index (Velvetleaf [8]; Table II, 5.6 kg/h): 4 (100% control) | post-emergent herbicidal activity index (Wheat; 0.28 kg/h): 1 (25-49% control) | post-emergent herbicidal activity index (Wheat; 1.12 kg/h): 3 (75-99% control) | post-emergent herbicidal activity index (Wheat; 5.6 kg/h): 4 (100% control) | post-emergent herbicidal activity index (Wild Buckwheat; 0.28 kg/h): 0 (0-24% control) | post-emergent herbicidal activity index (Wild Buckwheat; 1.12 kg/h): 2 (50-74% control) | post-emergent herbicidal activity index (Wild Buckwheat; 5.6 kg/h): 4 (100% control) | post-emergent herbicidal activity index (Yellow Nutsedge [9]): 3 (75-99% control) | pre-emergent herbicidal activity index (Barnyardgrass [10]): 0 (1-24% control) | pre-emergent herbicidal activity index (Canada Thistle): 3 (75-100% control) | pre-emergent herbicidal activity index (Cocklebur [11]): 0 (1-24% control) | pre-emergent herbicidal activity index (Downy Brome [12]): 0 (1-24% control) | pre-emergent herbicidal activity index (Johnsongrass): 0 (1-24% control) | pre-emergent herbicidal activity index (Lambsquarters [13]): 3 (75-100% control) | pre-emergent herbicidal activity index (Morningglory [14]): 0 (1-24% control) | pre-emergent herbicidal activity index (Quackgrass [15]): 2 (50-74% control) | pre-emergent herbicidal activity index (Smartweed [16]): 0 (1-24% control) | pre-emergent herbicidal activity index (Velvetleaf [17]): 0 (1-24% control) | pre-emergent herbicidal activity index (Yellow Nutsedge [18]): 1 (25-49% control)
